US20120277238A1, “PHARMACEUTICAL COMPOSITION CONTAINING FUSED HETERO-RING DERIVATIVE” (Shionogi & Co., Ltd, priority 2009, published 2012)

Tests used:
[1] = Bioavailability (BA) test and total body clearance test; assay type: in vivo; conditions: plasma; rat; oral 1 mg/kg dosage
Experimental: (1) Animal: mice or rats (2) Breeding conditions: mice and rats are allowed to freely take solid feed and sterilized tap water (3) Dose and grouping: orally or intravenously administered at a predetermined dose; grouping is as follows (Dose depends on the compound)
Oral administration: 1 to 30 mg/kg (n=2 to 3)
Intravenous administration: 0.5 to 10 mg/kg (n=2 to 3)
(4) Preparation of dosing solution: for oral administration, in a solution or a suspension state; for intravenous administration, in a solubilized state (5) Administration method: in oral administration, forcedly administer into ventriculus with oral probe; in intravenous administration, administer from caudal vein with a needle-equipped syringe (6) Evaluation items: blood is collected over time, and the plasma concentration of drug is measured by LC/MS/MS (7) Statistical analysis: regarding the transition of the plasma concentration, the area under the plasma concentration-time curve (AUC) and total body clearance (Clt) are calculated by non-linear least squares program WinNonlin (Registered trademark), and the bioavailability (BA) is calculated from the AUCs of the oral administration group and intravenous administration group
The following values show the rat BA of the compounds on oral 1 mg/kg dosage.

hERG (IKr) = target: T1, hERG (IKr) (Homo sapiens, UniProt Q12809); experiment: hERG test (whole cell patch clamp, IKr); assay type: cell-based; conditions: HEK293 cells expressing hERG channel, pH 7.4, at 1 μmol/L, read-out: % inhibition of IKr (hERG tail peak current)
T1 construct: expressed in transfected cells; host or cells: HEK293
T1 sequence (Q12809 whole entry): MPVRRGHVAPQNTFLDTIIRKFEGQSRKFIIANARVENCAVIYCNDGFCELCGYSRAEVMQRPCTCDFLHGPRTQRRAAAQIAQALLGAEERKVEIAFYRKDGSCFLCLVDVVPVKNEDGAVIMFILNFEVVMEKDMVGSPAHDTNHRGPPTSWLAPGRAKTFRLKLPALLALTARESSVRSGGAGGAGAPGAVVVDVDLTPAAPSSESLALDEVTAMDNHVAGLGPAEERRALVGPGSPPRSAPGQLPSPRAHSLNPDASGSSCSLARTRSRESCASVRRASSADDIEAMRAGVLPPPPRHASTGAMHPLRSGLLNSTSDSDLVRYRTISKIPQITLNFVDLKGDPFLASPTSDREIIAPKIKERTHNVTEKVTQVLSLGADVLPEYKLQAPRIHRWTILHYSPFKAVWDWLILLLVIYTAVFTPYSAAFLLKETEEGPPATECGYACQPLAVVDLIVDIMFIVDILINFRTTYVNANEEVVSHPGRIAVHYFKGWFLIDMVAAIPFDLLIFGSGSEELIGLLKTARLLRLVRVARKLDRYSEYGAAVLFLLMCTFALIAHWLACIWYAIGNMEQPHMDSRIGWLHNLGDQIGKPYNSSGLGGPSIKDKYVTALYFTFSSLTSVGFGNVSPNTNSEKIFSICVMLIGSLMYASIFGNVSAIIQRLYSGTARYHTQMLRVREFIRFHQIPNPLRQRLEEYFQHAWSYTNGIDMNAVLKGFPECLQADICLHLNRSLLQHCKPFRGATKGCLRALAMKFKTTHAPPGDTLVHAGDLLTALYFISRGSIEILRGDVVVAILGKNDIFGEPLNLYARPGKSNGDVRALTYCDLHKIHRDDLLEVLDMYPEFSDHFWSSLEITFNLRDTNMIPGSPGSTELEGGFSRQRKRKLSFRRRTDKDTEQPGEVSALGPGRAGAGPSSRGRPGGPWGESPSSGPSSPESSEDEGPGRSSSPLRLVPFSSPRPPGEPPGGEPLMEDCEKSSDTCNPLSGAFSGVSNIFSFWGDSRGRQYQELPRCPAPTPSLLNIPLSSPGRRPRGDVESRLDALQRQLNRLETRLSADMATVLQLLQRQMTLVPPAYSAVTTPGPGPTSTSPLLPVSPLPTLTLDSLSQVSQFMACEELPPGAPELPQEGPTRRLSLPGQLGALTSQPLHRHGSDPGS
Excerpt: For the purpose of assessing risk of an electrocardiogram QT interval prolongation, effects on delayed rectifier K^+ current (IKr), which plays an important role in the ventricular repolarization process, was studied using HEK293 cells expressing human ether-a-go-go related gene (hERG) channel. After a cell was retained at a membrane potential of −80 mV by whole cell patch clamp method using an automated patch clamp system (PatchXpress 7000A, Axon Instruments Inc.), IKr induced by depolarization pulse stimulation at +50 mV for 2 seconds and, further, repolarization pulse stimulation at −50 mV for 2 seconds was recorded. […] From the recording IKr, an absolute value of the tail peak current was measured based on the current value at the resting membrane potential using an analysis software (DataXpress ver.1, Molecular Devices Corporation). Further, the % inhibition relative to the tail peak current before application of the test substance was calculated, and compared with the vehicle-applied group (0.1% dimethyl sulfoxide solution) to assess influence of the test substance on IKr.

human HRH4 = target: T2, human HRH4 (Homo sapiens, UniProt Q9H3N8); experiment: Histamine H4 receptor binding test ([3H]-Histamine radioligand binding); conditions: membrane fraction of CHO-K1 expressing human HRH4; [3H]-Histamine 15 nM; Ki by Cheng-Prusoff
T2 construct: purchased PerkinElmer
T2 sequence (Q9H3N8 whole entry): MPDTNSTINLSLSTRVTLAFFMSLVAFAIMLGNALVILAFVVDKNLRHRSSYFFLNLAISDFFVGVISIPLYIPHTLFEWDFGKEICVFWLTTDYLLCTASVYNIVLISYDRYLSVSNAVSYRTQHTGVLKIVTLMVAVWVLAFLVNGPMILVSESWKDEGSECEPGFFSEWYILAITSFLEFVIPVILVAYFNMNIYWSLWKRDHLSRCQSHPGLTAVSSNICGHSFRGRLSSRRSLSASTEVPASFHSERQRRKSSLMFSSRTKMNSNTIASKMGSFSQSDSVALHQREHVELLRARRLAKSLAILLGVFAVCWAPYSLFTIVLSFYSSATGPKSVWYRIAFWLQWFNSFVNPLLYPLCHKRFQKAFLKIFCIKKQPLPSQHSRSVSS
Experimental: Membrane fraction of CHO-K1 stably expressing human HRH4 was purchased from PerkinElmer. Radioligand binding assay was performed in 96 well polypropylene assay plates in a total assay volume of 150 μL. Membrane suspension (15 μg of protein) was mixed with [3H]-Histamine (PerkinElmer) at 15 nM and compounds at various concentration in 50 mM Tris-HCl pH7.4, 5 mM EDTA buffer. Assays were incubated for 60 min at room temperature, then the reactions were terminated by rapid filtration over 96-well GF/B filter plates (PerkinElmer) presoaked in 0.5% polyethyleneimine. Unbound radioactivity was eliminated by six times of wash with 350 μL of ice-cold 50 mM Tris pH7.4 buffer. When the filter plates were dried, Microscint-MS liquid scintillation fluid (PerkinElmer) was added to each well and retained radioactivity plates were counted in a Topcount liquid scintillation counter (PerkinElmer). Specific binding was calculated by subtracting non-specific binding determined in the presence of 100 μM unlabeled histamine from total count.
The resulting data were analyzed for IC50 using the non-linear regression on XLfit.
Affinity values (Ki) were then determined by Cheng-Prusoff equation.

CYP3A4 [2] = target: T3, CYP3A4 (Homo sapiens, UniProt P08684); experiment: CYP inhibition test (pooled human hepatic microsome); assay type: in vitro ADME; set-up: enzyme, pooled human hepatic microsome 0.2 mg protein/mL; from tissue; conditions: terfenedine hydroxylation
T3 sequence (P08684 whole entry): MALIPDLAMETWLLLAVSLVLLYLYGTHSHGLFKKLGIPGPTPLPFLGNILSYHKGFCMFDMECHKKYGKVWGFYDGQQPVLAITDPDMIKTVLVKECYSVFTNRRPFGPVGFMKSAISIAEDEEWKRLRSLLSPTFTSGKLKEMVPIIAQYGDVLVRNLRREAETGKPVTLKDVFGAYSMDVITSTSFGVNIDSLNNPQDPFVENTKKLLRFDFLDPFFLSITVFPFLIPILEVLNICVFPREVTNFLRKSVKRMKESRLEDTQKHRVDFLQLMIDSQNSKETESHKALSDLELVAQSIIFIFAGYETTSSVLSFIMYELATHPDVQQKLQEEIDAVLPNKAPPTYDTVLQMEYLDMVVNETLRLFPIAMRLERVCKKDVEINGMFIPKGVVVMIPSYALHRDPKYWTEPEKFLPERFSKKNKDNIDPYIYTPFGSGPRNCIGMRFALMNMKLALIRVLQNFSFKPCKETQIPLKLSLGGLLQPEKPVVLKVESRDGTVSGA
Experimental: Using commercially available pooled human hepatic microsome, and employing, as markers, 7-ethoxyresorufin O-deethylation (CYP1A2), tolbutamide methylhydroxylation (CYP2C9), mephenyloin 4′-hydroxylation (CYP2C19), dextromethorphan O-demethylation (CYP2D6), and terfenedine hydroxylation as typical substrate metabolism reactions of human main five CYP enzyme forms (CYP1A2, 2C9, 2C19, 2D6, 3A4), an inhibitory degree of each metabolite production amount by a test compound was assessed. […] After the centrifugation at 3000 rpm for 15 minutes, resorufin (CYP1A2 metabolite) in the supernatant was quantified by a fluorescent multilabel counter and tributamide hydroxide (CYP2CP metabolite), mephenyloin 4′ hydroxide (CYP2C19 metabolite), […], and terfenadine alcohol (CYP3A4 metabolite) were quantified by LC/MS/MS. Addition of only DMSO being a solvent dissolving a drug to a reaction system was adopted as a control (100%), remaining activity (%) was calculated at each concentration of a test drug added as the solution and IC50 was calculated by reverse presumption by a logistic model using a concentration and an inhibition rate.

[3] = Solubility test (artificial intestinal juice pH 6.8, 1% DMSO); assay type: physicochemical; conditions: artificial intestinal juice pH 6.8 with 1% DMSO, fassgf or other biorelevant, kinetic from dmso stock, 25° C.
Experimental: The solubility of a compound is determined under a condition in which 1% DMSO is added. 10 mM compound solution is prepared using DMSO, and then 6 μL of the compound solution is added to 594 μL of artificial intestinal juice in pH 6.8 (to 250 mL of 0.2 mol/L potassium dihydrogen phosphate reagent solution is added 118 mL of 0.2 mol/L NaOH reagent solution and water to provide a final volume of 1000 mL). After standing at 25° C. for 16 hours, the mixed solution is filtrated with suction. The filtrate is diluted twice with methanol/water (1/1), and then a concentration in the filtration is measured with HPLC or LC/MS/MS by the absolute calibration method.

CYP1A2 = target: T4, CYP1A2 (Homo sapiens, UniProt P05177); experiment: CYP inhibition test (pooled human hepatic microsome); assay type: in vitro ADME; conditions: 7-ethoxyresorufin O-deethylation
T4 construct: enzyme, pooled human hepatic microsome 0.2 mg protein/mL; from tissue
T4 sequence (P05177 1-516): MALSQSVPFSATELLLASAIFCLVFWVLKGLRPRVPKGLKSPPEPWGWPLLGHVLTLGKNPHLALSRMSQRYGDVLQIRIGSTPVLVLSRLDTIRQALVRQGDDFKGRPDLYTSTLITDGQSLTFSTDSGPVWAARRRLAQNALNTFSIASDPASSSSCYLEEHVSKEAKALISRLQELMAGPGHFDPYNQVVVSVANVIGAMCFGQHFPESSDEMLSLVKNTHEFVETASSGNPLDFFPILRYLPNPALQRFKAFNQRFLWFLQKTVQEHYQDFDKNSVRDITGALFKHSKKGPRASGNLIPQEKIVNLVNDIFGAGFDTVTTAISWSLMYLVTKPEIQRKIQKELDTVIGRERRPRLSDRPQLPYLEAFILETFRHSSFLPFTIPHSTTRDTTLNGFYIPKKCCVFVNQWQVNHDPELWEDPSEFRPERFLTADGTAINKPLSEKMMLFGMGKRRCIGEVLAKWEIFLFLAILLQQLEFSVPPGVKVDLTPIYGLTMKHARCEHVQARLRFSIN
Experimental: (§1) Using commercially available pooled human hepatic microsome, and employing, as markers, 7-ethoxyresorufin O-deethylation (CYP1A2), tolbutamide methylhydroxylation (CYP2C9), mephenyloin 4′-hydroxylation (CYP2C19), dextromethorphan O-demethylation (CYP2D6), and terfenedine hydroxylation as typical substrate metabolism reactions of human main five CYP enzyme forms (CYP1A2, 2C9, 2C19, 2D6, 3A4), an inhibitory degree of each metabolite production amount by a test compound was assessed. The reaction conditions were as follows: substrate, 0.5 μmol/L ethoxyresorufin (CYP1A2), 100 μmol/L tolbutamide (CYP2C9), 50 μmol/L S-mephenitoin (CYP2C19), 5 μmol/L dextromethorphan (CYP2D6), 1 μmol/L terfenedine (CYP3A4); reaction time, 15 minutes; reaction temperature, 37° C.; enzyme, pooled human hepatic microsome 0.2 mg protein/mL; test drug concentration, 1, 5, 10, 20 μmol/L (four points). Each five kinds of substrates, human hepatic microsome, or a test drug in 50 mM Hepes buffer as a reaction solution was added to a 96-well plate at the composition as described above, NADPH, as a cofactor was added to initiate metabolism reactions as markers and, after the incubation at 37° C. for 15 minutes, a methanol/acetonitrile=1/1 (v/v) solution was added to stop the reaction. After the centrifugation at 3000 rpm for 15 minutes, resorufin (CYP1A2 metabolite) in the supernatant was quantified by a fluorescent multilabel counter and tributamide hydroxide (CYP2CP metabolite), mephenyloin 4′ hydroxide (CYP2C19 metabolite), […] (CYP2D6 metabolite), and terfenadine alcohol (CYP3A4 metabolite) were quantified by LC/MS/MS. Addition of only DMSO being a solvent dissolving a drug to a reaction system was adopted as a control (100%), remaining activity (%) was calculated at each concentration of a test drug added as the solution and IC50 was calculated by reverse presumption by a logistic model using a concentration and an inhibition rate.

CYP2C9 = target: T5, CYP2C9 (Homo sapiens, UniProt P11712); experiment: as above; assay type: in vitro ADME; conditions: tolbutamide methylhydroxylation
T5 construct: enzyme, pooled human hepatic microsome 0.2 mg protein/mL; from tissue
T5 sequence (P11712 whole entry): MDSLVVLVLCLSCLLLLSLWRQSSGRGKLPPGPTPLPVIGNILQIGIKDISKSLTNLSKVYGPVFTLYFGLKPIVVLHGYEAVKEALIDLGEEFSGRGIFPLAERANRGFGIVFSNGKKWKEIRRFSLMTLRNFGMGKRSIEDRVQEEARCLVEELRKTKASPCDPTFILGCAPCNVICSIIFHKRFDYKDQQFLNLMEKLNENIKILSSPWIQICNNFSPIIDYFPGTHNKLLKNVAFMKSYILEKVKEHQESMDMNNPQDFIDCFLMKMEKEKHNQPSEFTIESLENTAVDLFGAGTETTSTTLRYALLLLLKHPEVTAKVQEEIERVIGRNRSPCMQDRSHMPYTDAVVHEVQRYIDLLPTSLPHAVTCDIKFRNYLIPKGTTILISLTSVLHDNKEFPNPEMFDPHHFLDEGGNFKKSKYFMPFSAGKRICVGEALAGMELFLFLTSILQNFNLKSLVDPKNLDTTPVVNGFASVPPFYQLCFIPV
Experimental: as §1

CYP2D6 = target: T6, CYP2D6 (Homo sapiens, UniProt P10635); experiment: as above; assay type: in vitro ADME; conditions: dextromethorphan O-demethylation
T6 construct: enzyme, pooled human hepatic microsome 0.2 mg protein/mL; from tissue
T6 sequence (P10635 whole entry): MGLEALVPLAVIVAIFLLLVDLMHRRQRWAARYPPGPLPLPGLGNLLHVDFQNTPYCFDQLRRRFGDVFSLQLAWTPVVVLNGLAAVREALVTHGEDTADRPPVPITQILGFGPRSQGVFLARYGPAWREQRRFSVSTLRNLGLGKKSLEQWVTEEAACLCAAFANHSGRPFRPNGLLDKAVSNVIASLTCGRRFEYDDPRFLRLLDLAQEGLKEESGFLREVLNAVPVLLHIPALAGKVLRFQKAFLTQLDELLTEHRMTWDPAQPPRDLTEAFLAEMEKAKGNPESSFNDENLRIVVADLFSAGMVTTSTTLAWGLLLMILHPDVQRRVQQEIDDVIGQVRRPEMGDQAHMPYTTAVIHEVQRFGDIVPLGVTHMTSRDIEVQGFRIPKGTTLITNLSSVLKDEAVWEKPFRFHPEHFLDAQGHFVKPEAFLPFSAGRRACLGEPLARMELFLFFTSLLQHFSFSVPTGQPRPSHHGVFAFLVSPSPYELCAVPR
Experimental: as §1

CYP2C19 = target: T7, CYP2C19 (Homo sapiens, UniProt P33261); experiment: as above; assay type: in vitro ADME; conditions: mephenyloin 4′-hydroxylation
T7 construct: enzyme, pooled human hepatic microsome 0.2 mg protein/mL; from tissue
T7 sequence (P33261 whole entry): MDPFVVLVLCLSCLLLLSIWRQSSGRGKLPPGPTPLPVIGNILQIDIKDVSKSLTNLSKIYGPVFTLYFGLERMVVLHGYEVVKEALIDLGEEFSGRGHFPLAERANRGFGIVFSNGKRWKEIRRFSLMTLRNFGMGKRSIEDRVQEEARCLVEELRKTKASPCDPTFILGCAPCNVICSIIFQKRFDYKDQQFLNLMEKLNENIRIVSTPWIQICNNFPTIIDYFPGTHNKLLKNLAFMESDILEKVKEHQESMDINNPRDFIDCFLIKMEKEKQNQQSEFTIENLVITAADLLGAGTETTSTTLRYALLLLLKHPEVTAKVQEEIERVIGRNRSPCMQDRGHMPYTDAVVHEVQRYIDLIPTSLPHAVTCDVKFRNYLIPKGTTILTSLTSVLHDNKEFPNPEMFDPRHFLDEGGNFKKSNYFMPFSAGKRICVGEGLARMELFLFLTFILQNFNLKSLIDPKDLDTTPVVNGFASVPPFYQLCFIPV
Experimental: as §1

CYP3A4 [4] = target: T3, CYP3A4; experiment: CYP3A4 fluorescent MBI test; assay type: in vitro ADME; set-up: host or cells: Escherichia coli; conditions: prereaction 0 or 30 minutes; substrate 7-BFC; CYP3A4 expressed in Escherichia coli
Experimental: The CYP3A4 fluorescent MBI test is a test of investigating enhancement of CYP3A4 inhibition of a compound by a metabolism reaction, and the test was performed using, as CYP3A4 enzyme expressed in Escherichia coli and employing, as an index, a reaction in which 7-benzyloxytrifluoromethylchmarin (BFC) is debenzylated by the CYP3A4 enzyme to produce a metabolite, 7-hydroxytrifluoromethylchmarin (HFC) emitting fluorescent light.
The reaction conditions were as follows: substrate, 5.6 μmol/L 7-BFC; prereaction time, 0 or 30 minutes; reaction time, 15 minutes; reaction temperature, 25° C. […]
An enzyme in a K-Pi buffer (pH 7.4) and a test drug solution as a pre-reaction solution were added to a 96-well plate at the composition of the pre-reaction, a part of it was transferred to another 96-well plate so that it was 1/10 diluted by a substrate in a K-Pi buffer, NADPH as a co-factor was added to initiate a reaction as an index (without preincubation) and, after a predetermined time of a reaction, acetonitrile/0.5 mol/L Tris(trishydroxyaminomethane)=4/1 was added to stop the reaction. […] For the plate on which each index reaction had been performed, a fluorescent value of 7-HFC which is a metabolite was measured with a fluorescent plate reader. […]

| Compound | bioavailability [1] [%] | inhibition at 10 min, 1 μmol/L (hERG (IKr)) [%] | Ki (human HRH4) [nM] | IC50 (CYP3A4 [2]) [nM] | solubility at 16 h [3] [µM] | IC50 (CYP1A2) [nM] | IC50 (CYP2C9) [nM] | IC50 (CYP2D6) [nM] | IC50 (CYP2C19) [nM] | CYP3A4 MBI: difference between IC50 values (CYP3A4 [4]) |
| --- | --- | --- | --- | --- | --- | --- | --- | --- | --- | --- |
| CN1CCN(C(=O)c2cc3c([nH]2)CCC(C#N)C3)CC1 (stereo not shown) [Compound I-035] | 31 | 0 | 150 | – | – | – | – | – | – | – |
| CN1CCN(C(=O)c2cc3c([nH]2)C(CO)CCC3)CC1 (stereo not shown) [Compound I-043] | – | 0 | 270 | – | – | – | – | – | – | – |
| CN1CCN(C(=O)c2cc3c([nH]2)CCC(F)(F)C3)CC1 [Compound I-050] | – | – | 63 | > 20000 | > 50 | > 20000 | > 20000 | > 20000 | > 20000 | (−) (when the difference is 3 μM or less, this was defined as (−)) |
